How the values were obtained:
[1] = system: platelets (platelet-rich plasma); test: γ-thrombin-induced platelet aggregation in platelet-rich plasma; format: cell-based, human; conditions: γ-thrombin, compared to RPPGF at 0.2 mM
Protocol: Fresh whole blood was collected and mixed with 0.013 M sodium citrate and platelet-rich plasma was prepared according to the method of Meloni et al., J. Biol. Chem. 266, 6786 (1991). Platelet-rich plasma with a normalized platelet count between 2-2.5×10^8 platelets/ml was added to a cuvette of an aggregometer (Chronlog Corp., Havertown, Pa.), standardized using the protocol of Meloni et al., supra. Peptides to be examined were added to the cuvette and the mixture stabilized for a few moments. Once the baseline was stabilized, γ-thrombin (10-70 NM) (Haematologic Technologies, Essex Junction, Vt.) was added to determine the minimal concentration of the agonist necessary to achieve full platelet aggregation. All investigations with peptides were performed using threshold concentrations of γ-thrombin. Aggregation was allowed to proceed for 5 minutes before stopping. When ADP-induced platelet aggregation studies were performed, 1-5 μM ADP (Sigrna) was added to the cuvette containing platelet-rich plasma.

[2] = system: Normal human lung fibroblasts (NHLF); test: α-thrombin-induced calcium mobilization in fibroblasts (fura-2); format: cell-based; conditions: thrombin-induced calcium mobilization in fibroblasts, 0.2 mM peptide
Protocol: The second assay developed to assess peptides from the combinatorial libraries uses inhibition of α-thrombin-induced calcium mobilization in fibroblasts. Normal human lung fibroblasts (NHLF) were purchased from Clonetics, San Diego, Calif., an affiliate of Bio-Wittaker, Walkersville, Md. The cytoplasmic free Ca^2+ concentration ([Ca^2+]i) was measured using the fluorescent Ca^2+ indicator fura-2 (Molecular Probes, Inc., Eugene, Oreg.). Suspension of fibroblasts in Hepes-Tyrode's buffer were loaded with fura-2 by incubation at 37° C. with 2 μM fura-2/acetoxymethyl ester for 45 minutes according to the method of Rasmussen et al., J. Biol. Chem. 268, 14322 (1993). The labeled fibroblasts were separated from excess probe by washing by centrifugation at 1000 rpm (180×g). Aliquots of the labeled fibroblasts were transferred into a quartz cuvette with a magnetic stirrer, which was then placed in a thennostatically controlled chamber at 37° C. in a fluorescence spectrophotometer (Perkin-Elmer LS50B spectrofluorometer, Chicago, Ill.). Reagents, test peptide (SEQ ID NO: 5) (from 0.2 mM to effective lower concentration), and α-thrombin (2-4 nM), were sequentially added directly to the cuvette. The excitation wavelengths varied between 340 and 380 nm. Fluorescence was measured by recording emitted light at 510 nm as reported by Fisher et al., Mol Pharm. 35, 195 (1989). The minimum emission was determined on a solubilized fibroblast sample in the presence of 10 mM EDTA; maximum emission was determined on the same sample with 10 mM Ca^2+ added. The intrafibroblast free Ca^2+ concentration was calculated by the method of Grykiewicz et al., J. Biol. Chem. 260, 3440 (1985). The ratio of the fluorescence readings was calculated as R=340/380 nm and processed according to the equation [Ca^2+]i=KD((R−Rmim)/Rmax−R)) (Sf2/Sb2) to determine the intrafibroblast free Ca^2+ concentration. The KD for fura-2 was assumed to be 224 nM. Rmax and Rmin are the maximum and minimum fluorescence ratios measured at the end of the experiment, respectively; Sf2 and Sb2 are the fluorescence values at 380 nm in the absence and presence of saturating [Ca 2+], respectively. The reaction was monitored for 3-5 minutes. […] In FIG. 4, peptide RGDWC (SEQ ID NO: 20) at 0.2 mM inhibited 31% of 4 nM α-thrombin-induced Ca^2+ mobilization in fibroblasts.

[3] = target: biotin-NAT12 (NATLDPRSFLLR, peptide from PAR1) (Homo sapiens, UniProt P25116); test: Biotin-NAT12 binding assay to peptides coupled to microtiter plates; conditions: relative to RPPGF given arbitrary binding level of 1
Protocol: A third assay was developed to ascertain the ability of biotin-NAT12 (NATLDPRSFLLR, SEQ ID NO: 41) to directly bind to peptides linked to microtiter plates. In this assay, peptide analogs were linked to microtiter plate cuvette wells by incubation of the peptide in 0.1 M Na2CO3, pH 9.6 buffer overnight at 4° C. After coupling the peptide to the cuvette well, the wells were dumped and each well was blocked with 1% bovine serun albumin in 0.01 M Na3PO4, 0.15 M NaCl, at pH 7.4. After incubation for 1 hour, the wells were dumped and washed three times with PBS-Tween. The wells were then incubated with biotin-NAT12. The amount of biotin-NAT12 bound was determined by adding streptavidin-peroxidase followed by adding turbo TMB (Pierce).
In decreasing order of binding level, these peptides include: RGKSC, RGKMC, RGKHC, RGKKC, RGKFC, RGKLC, RGKWC, and RGKVC (SEQ ID NOS 18, 7, 13, 14, 11, 1, 5 and 19, respectively). […] The best to least RGDO4C (SEQ ID NO: 44) peptides to bind biotin-NAT12 listed in Table VI are: RGDSC, RGDGC, RGDQC, RGDEC, RGDIC, RGDPC, RGDDC, and RGDYC (SEQ ID NOS 34, 28, 23, 22, 36, 38, 27 and 35, respectively). A solid phase peptide-peptide binding assay was used to determine biotin-NAT12 binding to library peptides. Test peptides in 0.1 M Na2CO3, pH 9.6 buffer, at 10 μg/well in 50 μl volume, were coupled to microtiter plate wells by overnight incubation at 4° C. After incubation, the contents of the wells were discarded and the wells were washed with a pH 7.4 buffer containing 0.01 M Na3PO4, 0.15 M NaCl, and 0.01% Tween 20. After blocking each well with 1% radioimmunoassay grade bovine serum albumin, the linked peptides were incubated with 100 μl of 100 μM biotin-NAT12 for 1 hour at 37° C. After incubation, the contents of the wells were dumped and the wells were washed three times (100 μl/well each time) with the buffer identified above. Each well then was incubated with 100 μl of 2 μg/ml solution of Immuno-Pure streptoavidin horeseradish peroxidase conjugate (Pierce Chemical Co., […], Ill.) for 1 hour at room temperature. The contents of the wells were discarded and the wells were washed three times as described above. The wells were then incubated with 100 μl of peroxidase-specific fast reacting substrate, turbo-3,3′,5,5′-tetramethylbenzidine (turbo-TMB, Pierce) for 5 minutes at room temperature and the developing color reaction was stopped by the addition of 100 μof 1 M phosphoric acid. The absorbance was measured at 450 nm using a Microplate Auto Reader EL311 (Bio-Tek, Winooski, Vt.).

[4] = RGKO4C sublibrary, platelet-rich plasma

Substance | Fold Increase in Aggregation Inhibition over RPPGF ([1]; RGDO4C sublibrary) | Ca2+ % Inhibition At 0.2 mM Peptide ([2]; RGDO4C sublibrary) | Level of Binding to Biotin-NAT12 ([3]; RGDO4C sublibrary) | Ca2+ % Inhibition At 0.2 mM Peptide ([2]; RGKO4C sublibrary) | Level of Binding to Biotin-NAT12 ([3]; RGKO4C sublibrary) | Fold Increase in Aggregation Inhibition over RPPGF [1, 4]
RGDEC: peptide of the H-R-G-D-O4-C-NH2 sublibrary (H-RGDEC-NH2) | 20 fold | 1.96% | 1.28 | – | – | –
RGKFC: peptide of the H-R-G-K-O4-C-NH2 sublibrary (H-RGKFC-NH2) | – | – | – | 2.74% | 1.5 | –
RGKHC: peptide of the H-R-G-K-O4-C-NH2 sublibrary (H-RGKHC-NH2) | – | – | – | 31.2% | 2.1 | –
RGDTC: peptide of the H-R-G-D-O4-C-NH2 sublibrary (H-RGDTC-NH2) | 7.5 fold | 0% | 0.746 | – | – | –
RGKNC: peptide of the H-R-G-K-O4-C-NH2 sublibrary (H-RGKNC-NH2) | – | – | – | 0% | 1.2 | –
RGDAC: peptide of the H-R-G-D-O4-C-NH2 sublibrary (H-RGDAC-NH2) | – | 11% | 0.8 | – | – | –
RGKSC: peptide of the H-R-G-K-O4-C-NH2 sublibrary (H-RGKSC-NH2) | – | – | – | 0.01% | 2.2 | –
RGDHC: peptide of the H-R-G-D-O4-C-NH2 sublibrary (H-RGDHC-NH2) | 14.8 fold | 9.9% | 0.759 | – | – | –
RGKVC: peptide of the H-R-G-K-O4-C-NH2 sublibrary (H-RGKVC-NH2) | – | – | – | 17.3% | 1.2 | –
RGKLC: peptide of the H-R-G-K-O4-C-NH2 sublibrary (H-RGKLC-NH2) | – | – | – | 8.33% | 1.5 | 7.7 fold
RGDDC: peptide of the H-R-G-D-O4-C-NH2 sublibrary (H-RGDDC-NH2) | 7.5 fold | 8.9% | 1.11 | – | – | –
RGKAC: peptide of the H-R-G-K-O4-C-NH2 sublibrary (H-RGKAC-NH2) | – | – | – | 5.2% | 0.689 | –
RGDKC: peptide of the H-R-G-D-O4-C-NH2 sublibrary (H-RGDKC-NH2) | 7.5 fold | 28.1% | 0.67 | – | – | –
RGKMC: peptide of the H-R-G-K-O4-C-NH2 sublibrary (H-RGKMC-NH2) | – | – | – | 7.95% | 2.1 | 1.3 fold
RGDRC: peptide of the H-R-G-D-O4-C-NH2 sublibrary (H-RGDRC-NH2) | 5 fold | 0% | 0.99 | – | – | –
RGKPC: peptide of the H-R-G-K-O4-C-NH2 sublibrary (H-RGKPC-NH2) | – | – | – | 31.13% | 1.2 | –
RGDPC: peptide of the H-R-G-D-O4-C-NH2 sublibrary (H-RGDPC-NH2) | – | 4.13% | 1.12 | – | – | –
RGKEC: peptide of the H-R-G-K-O4-C-NH2 sublibrary (H-RGKEC-NH2) | – | – | – | 13.8% | 0.926 | –
RGKDC: peptide of the H-R-G-K-O4-C-NH2 sublibrary (H-RGKDC-NH2) | – | – | – | 26.7% | 0.82 | –
RGKGC: peptide of the H-R-G-K-O4-C-NH2 sublibrary (H-RGKGC-NH2) | – | – | – | 12.4% | 1.0 | –
RGKKC: peptide of the H-R-G-K-O4-C-NH2 sublibrary (H-RGKKC-NH2) | – | – | – | 38.9% | 1.8 | –
RGKQC: peptide of the H-R-G-K-O4-C-NH2 sublibrary (H-RGKQC-NH2) | – | – | – | 28% | 0.374 | –

From US6544750B1, “Peptide analogs as selective inhibitors of thrombin activation of protease activated receptor 1” (Thromgen, Inc., priority 1999, dated 2003)
